From the supplement of paper PMC10307832

Tests used:
Test in all cases: relative viability (nuclei count vs DMSO), 5 days (fraction); higher = more cells survive
[1] = compound: Nc1ncn([C@H]2C[C@H](O)[C@@H](CO)O2)c(=O)n1 [Decitabine] + CC(=O)c1c(C)c2cnc(Nc3ccc(N4CCNCC4)cn3)nc2n(C2CCCC2)c1=O [Palbociclib] (partner 0.5 µM)
Outline: (§1)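 Lung cancer cell lines in 1536-well plates got either a single drug or a fixed anchor-drug dose together with five library-drug doses (not always all listed) in √10 steps, by pin tool, on the day after seeding. Nuclei were counted after 5 days, and relative viability is the treated-to-vehicle ratio of nuclei counts. Values are medians of duplicate plates.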

[2] = compound: COc1cc2c(Oc3ccc4[nH]c(C)cc4c3F)ncnc2cc1OCCCN1CCCC1 [Cediranib] + Cc1nc(Nc2ncc(C(=O)Nc3c(C)cccc3Cl)s2)cc(N2CCN(CCO)CC2)n1 [Dasatinib] (partner 0.075 µM)
Outline: as §1

[3] = compound: O=C(C[C@H]1NCCC[C@@H]1O)Cn1cnc2cc(Br)c(Cl)cc2c1=O (racemic) [Halofuginone] + CC(=O)c1c(C)c2cnc(Nc3ccc(N4CCNCC4)cn3)nc2n(C2CCCC2)c1=O [Palbociclib] (partner 0.5 µM)
Outline: as §1

[4] = compound: O=C(C[C@H]1NCCC[C@@H]1O)Cn1cnc2cc(Br)c(Cl)cc2c1=O (racemic) [Halofuginone] + C[C@@H](Oc1cc(-c2cnn(C3CCNCC3)c2)cnc1N)c1c(Cl)ccc(F)c1Cl [Crizotinib] (partner 1 µM)
Outline: as §1

Row | Cell Line | relative viability ([1]; first compound 0.04 µM) | relative viability ([1]; first compound 0.1265 µM) | relative viability ([1]; first compound 0.4 µM) | relative viability ([1]; first compound 1.265 µM) | relative viability ([1]; first compound 4 µM) | relative viability ([2]; first compound 0.04 µM) | relative viability ([2]; first compound 0.1265 µM) | relative viability ([2]; first compound 0.4 µM) | relative viability ([2]; first compound 1.265 µM) | relative viability ([2]; first compound 4 µM) | relative viability ([3]; first compound 0.001 µM) | relative viability ([3]; first compound 0.003162 µM) | relative viability ([3]; first compound 0.01 µM) | relative viability ([3]; first compound 0.03162 µM) | relative viability ([3]; first compound 0.1 µM) | relative viability ([4]; first compound 0.001 µM) | relative viability ([4]; first compound 0.003162 µM) | relative viability ([4]; first compound 0.01 µM) | relative viability ([4]; first compound 0.03162 µM) | relative viability ([4]; first compound 0.1 µM)
1 | LCLC-103H | 0.429 | 0.49 | 0.444 | 0.442 | 0.501 | 0.594 | 0.578 | 0.413 | 0.511 | 0.5 | 0.492 | 0.491 | 0.462 | 0.467 | 0.523 | 1.09 | 1 | 0.972 | 0.948 | 0.85
2 | NCI-H3122 | 0.2 | 0.213 | 0.183 | 0.181 | 0.191 | 0.901 | 0.694 | 0.731 | 0.542 | 0.897 | 0.186 | 0.155 | 0.162 | 0.186 | 0.19 | 0.253 | 0.251 | 0.232 | 0.281 | 0.264
3 | PC-14 | 0.435 | 0.36 | 0.264 | 0.112 | 0.098 | 0.235 | 0.27 | 0.243 | 0.224 | 0.0965 | 0.509 | 0.597 | 0.514 | 0.17 | 0.0426 | 1 | 0.826 | 0.727 | 0.722 | 0.183
4 | BEN | 0.497 | 0.443 | 0.455 | 0.435 | 0.42 | 0.331 |  | 0.362 | 0.229 | 0.332 | 0.487 | 0.471 | 0.441 | 0.473 | 0.385 | 0.979 | 0.784 | 1.07 | 0.772 | 0.479
5 | EPLC-272H | 0.353 | 0.316 |  | 0.326 | 0.272 | 0.303 |  | 0.363 |  | 0.43 | 0.306 | 0.33 | 0.339 | 0.361 | 0.314 | 0.871 | 0.928 | 0.879 | 0.807 | 0.774
6 | LK-2 | 0.655 | 0.66 | 0.327 | 0.236 | 0.238 | 0.283 | 0.224 | 0.331 | 0.212 | 0.262 | 0.736 | 0.714 | 0.691 | 0.777 | 0.552 | 0.198 | 0.242 | 0.198 | 0.229 | 0.208
7 | ChaGo-K-1 | 0.764 | 0.545 | 0.442 | 0.362 | 0.637 | 0.524 | 0.508 | 0.608 | 0.578 | 0.626 | 0.945 | 0.947 | 0.963 | 0.95 | 0.947 | 1.18 | 1.2 | 1.03 | 1.11 | 0.975
8 | HCC-827 | 0.231 | 0.311 | 0.294 | 0.262 | 0.181 | 0.284 |  | 0.226 | 0.309 | 0.275 | 0.485 | 0.459 | 0.491 | 0.56 | 0.478 | 0.913 | 0.893 | 0.895 | 0.973 | 0.798
